Reference: article PMC12705613 (Frontiers in Microbiology, 2025)
Structures can show the parent of a compound that is named as a salt. One block for each molecule: values may come before it.

Experiments:
gut microbiota = assay: Fecal gut microbiota analysis after ceftriaxone treatment (16S rRNA, bacterial load); format: in vivo, rat; settings: ceftriaxone sodium 400 mg/kg/day orally, 2 weeks; feces of WKYs and SHRs
Protocol: Fecal samples were freshly collected, rapidly frozen, and weighed before storage at −80 °C until use. The absolute quantification of bacterial 16S rRNA amplicon sequencing was conducted by Majorbio Bio-Pharm Technology Co. Ltd. in Shanghai, China. Total microbial genomic DNA was extracted using the E. Z. N. A.® Soil DNA Kit, following the manufacturer’s guidelines. The quality and concentration of the extracted DNA were assessed through 1.0% agarose gel electrophoresis and with a NanoDrop 2000 spectrophotometer. RT-PCR was performed using universal 16S primers (Forward: 5′-[sequence]-3′, Reverse: 5′-[sequence]-3′) ([Nadkarni et al., 2002]). The relative bacterial load was determined by normalizing the DNA content against the weight of feces from the untreated group.
Fecal DNA was extracted utilizing the E. Z. N. A.® Soil DNA Kit. The extracted DNA was analyzed using a 1% agarose gel, and its concentration and purity were assessed with NanoDrop2000 spectrophotometer. […] The resulting PCR products were purified, quantified, and homogenized to create a sequencing library, which was commissioned to Majorbio Bio Pharm Technology Co. Ltd. The sequencing data were processed using the DADA2 algorithm in Qiime 2 to obtain amplicon sequence variants (ASVs), followed by the removal of chloroplast and mitochondrial sequences. […]

[1] = Body weight and blood pressure during ceftriaxone treatment; settings: ceftriaxone sodium 400 mg/kg/day orally, 2 weeks; WKYs and SHRs
[2] = Metabolites detection in vivo in plasma, feces and urine (UHPLC-Q-TOF-MS); set-up: species or system rat; settings: single oral losartan potassium 20 mg/kg
Protocol: For urine and feces, cumulative samples were collected over the following time intervals: 0–4, 4–8, 8–12, and 12–24 h after administration. The processing of the biological samples can be found in the Supplementary material.
The biological samples were processed as follows: For plasma, a total of 400 μL of pooled plasma was mixed by combining 50 μL aliquots from each time point. A 100 μL aliquot was mixed with 300 μL of methanol, vortexed for one minute, and centrifuged at 5,000 rpm for 10 minutes at 4°C [1]. In the case of urine, 1 mL was centrifuged at 4,000 rpm for 20 minutes at 4°C, and the supernatant was mixed with 2 mL of methanol, vortexed for one minute, and centrifuged at 12,000 rpm for 10 minutes at 4°C [2]. For fecal samples, 1.0 g of homogenized feces was extracted with 4 mL of methanol, sonicated in an ice-water bath for 20 minutes, and then centrifuged at 12,000 rpm for 10 minutes at 4°C [3]. Supernatants from the plasma, urine, and fecal extracts were evaporated under nitrogen gas, redissolved in methanol, and transferred to liquid chromatography vials. Samples were analyzed using UHPLC-Q-TOF-MS/MS for metabolite profiling.

in vivo = settings: for MRT last: MRT0-t; for MRT inf: MRT 0-∞; for half-life: t1/2z
Protocol: The pharmacokinetic study was described as follows.
The UHPLC-TQ-MS analysis was conducted on an LC-30 AD ultra high-performance liquid chromatograph (Shimadzu, Japan) connected to an AB 4500 (AB Sciex, United States) Triple Quadrupole Mass Spectrometer with an ESI source. Chromatographic separation was achieved on an Acquity UHPLC HSS T3 column (100 × 2.1 mm, 1.8 μm) at 40 °C, and the eluent was aqueous formic acid (100:0.1, v/v) (A) and acetonitrile with formic acid (100:0.1, v/v) (B) at a flow rate of 0.3 mL min^−1. Gradient elution differs in the calculation of residual content and pharmacokinetic experiments. MRM mode was employed. Data processing was performed using Analyst Software (AB Sciex). The UHPLC-TQ-MS method validation was conducted in terms of selectivity, linearity, carryover, accuracy and precision, matrix effect, extraction recovery, dilution integrity, and stability under various conditions, which was performed in line with the FDA guidelines for bioanalytical assays. More details were described in the Supplementary material method.
The comparisons of the relative abundance of the genera between different groups were performed using the Wilcoxon rank-sum test. Comparisons between WKY and SHRs before and after CRO treatment were conducted using either a t-test or one-way ANOVA, with p values < 0.05 considered statistically significant. […] Graphs were created using GraphPad Prism 8.0 software.
For the determination of drug remaining contents in the supernatant, the gradient elution was as follows: 0.1–0.5 min at 45% B; 0.5–1.0 min at 45–65% B; 1.5–4.0 min at 65–85% B; 4.0–4.5 min at 85% B; 4.5–4.6 min at 85%–45% B; 4.6–5.0 min at 45% B. For pharmacokinetics, the gradient elution was performed as follows: 0–0.5 min at 30% B; 0.5–1.5 min at 30–45% B; 1.5–5.0 min at 45–60% B; 5.0–7.0 min at 60–80% B; 7.0–8.0 min at 80% B; 8.1–10.0 min at 30% B. The injection volume was 5 μ L. The multiple reaction monitoring (MRM) mode was used to detect analytes and IS in the positive ion mode. The mass spectrometry parameters were set as follows: ion spray voltage was 5500 V, turbo spray temperature (TEM) of 550℃; nebulizer gas (gas 1) of 50 psi; heater gas (gas 2) of 50 psi and curtain gas of 40 psi. Nitrogen was kept as the nebulizer and auxiliary gas.

[3] = Stability of the analytes in rat plasma at different storage conditions; format: in vitro ADME
Protocol: Analysis of QC samples was performed according to a standard curve, which was obtained from freshly prepared calibration standard samples. The autosampler stability was determined by placing samples in the autosampler rack at 8 ℃ for 24 h. The freeze-thaw stability was evaluated after three complete freeze-thaw cycles (-80 ℃ to 25 ℃) on consecutive days. The short-term stability was determined after samples were exposed to room temperature for 6 h. The long-term stability was assessed after storing the samples at -80 ℃ for 30 days. The analytes were considered stable if the deviation between the mean measured concentration and the nominal concentration was within ± 15.0%.

[4] = set-up: method as in Yoo et al., 2016; settings: ref Yoo et al., 2016; cited from earlier work
[5] = SHR, rat, in vivo, po, 20 mg/kg
[6] = WKY, rat, in vivo, po, 20 mg/kg

SMILES: CO/N=C(\C(=O)N[C@@H]1C(=O)N2C(C(=O)O)=C(CSc3nc(=O)c(=O)[nH]n3C)CS[C@H]12)c1csc(N)n1 [CRO, ceftriaxone disodium salt hemiheptahydrate]
- α-diversity (Chao1, Shannon index) and bacterial abundance (gut microbiota): significant reduction
- Body weight, CRO-treated vs untreated [1]: no differences in body weight

- Abundance in feces and plasma, SHRs vs WKYs [2]: lower in SHRs than in WKYs
- Abundance in urine, SHRs vs WKYs [2]: more abundant in urine
- AUC0-∞ (in vivo; [5]): 900.54 ± 226.29 ng·h/mL
- AUC(0-t) (in vivo; [5]): 850.57 ± 189.22 ng·h/mL
- Cmax (in vivo; [5]): 143.43 ± 108.27 ng/mL
- MRT0-t (in vivo; [5]): 7.68 ± 1.38 h
- MRT 0-∞ (in vivo; [5]): 11.33 ± 2.86 h
- Tmax (in vivo; [5]): 1.96 ± 1.15 h
- t1/2z (in vivo; [5]): 5.61 ± 3.15 h
- MRT last (in vivo; [5]): 6.99 ± 1.41 h
- MRT inf (in vivo; [5]): 9.57 ± 2.83 h
- Tmax (in vivo; SHR, rat, in vivo, po, 20 mg/kg, Tmax): 1.83 ± 1.69 h
- half-life (in vivo; [5]): 5.51 ± 2.46 h
- Decrease of AUC0-∞ (in vivo; SHRs compared to WKYs, losartan potassium 20 mg/kg intragastric): 36.13%
- Cmax (in vivo; [6]): 310.47 ± 243.53 ng/mL
- MRT0-t (in vivo; [6]): 10.46 ± 1.03 h
- MRT 0-∞ (in vivo; [6]): 15.25 ± 4.02 h
- t1/2z (in vivo; [6]): 5.29 ± 1.44 h
- AUC(0-t) (in vivo; WKY, rat, in vivo, po, 20 mg/kg, AUC0-t): 1340 ± 741 ng·h/mL
- AUC(0-inf) (in vivo; WKY, rat, in vivo, po, 20 mg/kg, AUC0-∞): 1410 ± 741 ng·h/mL
- MRT last (in vivo; [6]): 6.18 ± 1.58 h
- MRT inf (in vivo; [6]): 8.79 ± 4.19 h
- half-life (in vivo; [6]): 5.75 ± 2.71 h
- Stability RE ([3]; autosampler for 24 h (8 ℃), high nominal conc. (losartan 8000, E-3174 4000, E-3179 1600 ng/mL)): 2.34%
- Stability RE ([3]; autosampler for 24 h (8 ℃), low nominal conc. (losartan 0.2, E-3174 10, E-3179 0.4 ng/mL)): 2.96%
- Stability RE ([3]; autosampler for 24 h (8 ℃), middle nominal conc. (losartan 2000, E-3174 1000, E-3179 400 ng/mL)): 12.05%
- Stability RE ([3]; room temperature for 6 h, high nominal conc. (losartan 8000, E-3174 4000, E-3179 1600 ng/mL)): -10.69%
- Stability RE ([3]; room temperature for 6 h, low nominal conc. (losartan 0.2, E-3174 10, E-3179 0.4 ng/mL)): -2.22%
- Stability RE ([3]; room temperature for 6 h, middle nominal conc. (losartan 2000, E-3174 1000, E-3179 400 ng/mL)): 4.87%
- Stability RE ([3]; three freeze-thaw cycles, high nominal conc. (losartan 8000, E-3174 4000, E-3179 1600 ng/mL)): 6.66%
- Stability RE ([3]; three freeze-thaw cycles, low nominal conc. (losartan 0.2, E-3174 10, E-3179 0.4 ng/mL)): 2.96%
- Stability RE ([3]; three freeze-thaw cycles, middle nominal conc. (losartan 2000, E-3174 1000, E-3179 400 ng/mL)): 2.84%
- Stability RE ([3]; −80°C for 30 days, high nominal conc. (losartan 8000, E-3174 4000, E-3179 1600 ng/mL)): 7.58%
- Stability RE ([3]; −80°C for 30 days, low nominal conc. (losartan 0.2, E-3174 10, E-3179 0.4 ng/mL)): 3.27%
- Stability RE ([3]; −80°C for 30 days, middle nominal conc. (losartan 2000, E-3174 1000, E-3179 400 ng/mL)): 9.16%
SMILES: CCCCc1nc(Cl)c(C=O)n1Cc1ccc(-c2ccccc2-c2nn[nH]n2)cc1 [E-3179]

SMILES: CCOC(=O)C1=C(COCCN)NC(C)=C(C(=O)OC)C1c1ccccc1Cl (centres unmarked) [amlodipine]
- Systemic exposure in antibiotic-treated rats vs controls [4]: significantly elevated
